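Cells were grown in 96-well plates and exposed to each compound for 48 hours at five concentrations; endpoints were interpolated linearly between bracketing concentrations, or set to the highest concentration if not reached. TGI: concentration producing complete growth inhibition.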
Key:
Assay in all cases: NCI tumour cell line growth inhibition, 48 h
MDA-MB-435 = test system: MDA-MB-435
SF-268 CNS = test system: SF-268 CNS
HCC-2998 colon = test system: HCC-2998 colon
T-47D breast = test system: T-47D breast
HCT-15 colon = test system: HCT-15 colon
SK-OV-3 ovarian = test system: SK-OV-3 ovarian
SK-MEL-5 melanoma = test system: SK-MEL-5 melanoma
SNB-78 CNS = test system: SNB-78 CNS
DLD-1 colon = test system: DLD-1 colon
KM20L2 colon = test system: KM20L2 colon
M19-MEL melanoma = test system: M19-MEL melanoma
LXFL 529 NSCLC = test system: LXFL 529 NSCLC
XF 498 CNS = test system: XF 498 CNS
DMS 273 small cell lung = test system: DMS 273 small cell lung
DMS 114 small cell lung = test system: DMS 114 small cell lung
HOP-18 NSCLC = test system: HOP-18 NSCLC

Compound	TGI (MDA-MB-435) [µM]	TGI (SF-268 CNS) [µM]	TGI (HCC-2998 colon) [µM]	TGI (T-47D breast) [µM]	TGI (HCT-15 colon) [µM]	TGI (SK-OV-3 ovarian) [µM]	TGI (SK-MEL-5 melanoma) [µM]	TGI (SNB-78 CNS) [µM]	TGI (DLD-1 colon) [µM]	TGI (KM20L2 colon) [µM]	TGI (M19-MEL melanoma) [µM]	TGI (LXFL 529 NSCLC) [µM]	TGI (XF 498 CNS) [µM]	TGI (DMS 273 small cell lung) [µM]	TGI (DMS 114 small cell lung) [µM]	TGI (HOP-18 NSCLC) [µM]
CC1(C)CC(=O)C(CC(C(=O)C(=O)Nc2cc(C(F)(F)F)ccc2Cl)C(=O)c2ccco2)C(=O)C1 (configuration not stated)	> 100	> 100	> 100	> 100	> 100	> 100	> 100									
COc1ccc(C2=NN(C(=O)c3ccccc3)C(O)(c3cc(F)c(Cl)cc3Cl)C2)cc1OC (configuration not stated)	> 100	> 100	> 100	> 100	> 100	48.8	> 100									
CC(=O)c1c2c(cc3c1CC1(Cc4cc5c(cc4C1=O)CCC5)C3)CCC2 (configuration not stated)	> 100	> 100	> 100	> 100	> 100	> 100	> 69.4									
CCOC(=O)C1=C(OS(=O)(=O)C(F)(F)F)CCCC1	> 100	> 100	> 100	> 100	> 100	> 100	> 100									
C=C1C(=O)OC2C[C@H](C)C3CC(=O)C(C)=C3CC12 (some centres not stated)		38.7	29.2		25.9	> 100	33.3	44.1	21.5	33.5	27.8	24.7	30.1	32.5	32.2	
CC(C)(C)[Si](C)(C)OCC1OC(n2cc(F)c(=O)[nH]c2=O)CC1O[Si](C)(C)C(C)(C)C (configuration not stated)	26.5	29.8	3.48	12.7	20.4	28.3	17.1									
COc1ccc(N2C(=O)CSC2c2cc3cc(Br)ccc3nc2Cl)cc1 (configuration not stated)	> 50	> 50	> 50	> 50	> 50	> 50	> 50									
C=CC1(c2ccc3ccccc3c2)OCC(CC)(CC)CO1	65.7	95.6	37.3	52.2	35.1	> 100	34									
Nc1ccn([C@H]2CO[C@@H](CO)O2)c(=O)n1	> 100	> 100	> 100	> 100	> 100	> 100	> 100									
CCCCCCNC(=O)c1cc(C#Cc2cc(OC)ccc2OC)ccc1OC	13.4	> 100	6.25	11	> 100	> 100	> 100									
COc1c(C(=O)/C(=N/Nc2ccccc2)C(C)=O)c(O)c(OC)c2occc12	> 100	> 100	> 100	> 100	> 100	> 100	31.7									
COc1cc(COC(=O)N2CCCCC2C(=O)O)c([N+](=O)[O-])cc1OC (configuration not stated)	> 100	> 100	> 100	> 100	> 100	> 100	> 100									
COCC[N+](CCNC(=O)c1cccc2c(N)c3cccc(C)c3nc12)(CCOC)Cc1ccc([N+](=O)[O-])cc1	83.4	87.5	27.2	37.3	> 100		22.9									
Oc1ccc2ccccc2c1-c1c(Nc2ccccc2)ccc2ccccc12	20.2	31.6	29.2	39.5	> 56.4	18.7	29									
CN(C)C(=S)N/N=C\C(=N/NC(=S)N(C)C)c1ccccc1	> 100	> 72.3	> 100	4.77	> 100	> 100	> 100									
Cc1nc2c(=O)[nH]c3ccccc3c2o1	> 100	> 100	> 100	> 100	> 100	> 100	> 100									
O=c1[nH]c(=O)n(C2CC(O)C(COP(=O)(O)OC3CC(n4cc(F)c(=O)[nH]c4=O)OC3COP(=O)(O)OC3CC(n4cc(F)c(=O)[nH]c4=O)OC3COP(=O)(O)OC3CC(n4cc(F)c(=O)[nH]c4=O)OC3COP(=O)(O)OC3CC(n4cc(F)c(=O)[nH]c4=O)OC3COP(=O)(O)OC3CC(n4cc(F)c(=O)[nH]c4=O)OC3COP(=O)(O)OC3CC(n4cc(F)c(=O)[nH]c4=O)OC3COP(=O)(O)OC3CC(n4cc(F)c(=O)[nH]c4=O)OC3COP(=O)(O)OC3CC(n4cc(F)c(=O)[nH]c4=O)OC3COP(=O)(O)OC3CC(n4cc(F)c(=O)[nH]c4=O)OC3CO)O2)cc1F (configuration not stated)	> 50	> 50	> 50	> 50	> 50	> 50	> 50									
CC/C(Cl)=N\OC(=O)Nc1ccccc1OC(F)(F)F	40.7	> 57.8	37.8	14.4	> 24.2	37.3	22.1									
CC(C)=CCC/C(C)=C/CC/C(C)=C/CC/C=C(\C)CC/C=C(\C)CCC1SC1(C)C (configuration not stated)		> 100	> 100		> 100	> 100	> 100	> 100	> 100	> 100	> 100	> 100		> 100	> 100	> 100
CSC(=NC1CC(n2cc(C)c(=O)[nH]c2=O)OC1CO)NC#N (configuration not stated)	> 100	> 100	> 100	> 100	> 100	> 100	> 100									
Cc1[nH]c2ncn3ncnc3c2c1Cc1ccccc1	> 100	> 100	> 100	> 100	> 100	> 100	> 100									
O=C(Cn1c(C(=O)/C=C/c2ccco2)nc2ccccc21)c1ccc(Cl)cc1	32.7	58.6	33.6	> 100	99.4	> 100	97.1									
C=C[C@@]1(C)CC2CC[C@]3(C)C(C)=CC(=O)CC3[C@]2(C)CC1O (some centres not stated)	> 100	> 100	> 100	> 100	> 100	> 100	> 100									
